Assay: solvent given as SMILES

FS(F)(F)(F)(F)F
Details	solvation free energy, 298 K [kcal/mol]
in Brc1ccccc1	0.67
in C1CCOC1	0.05
in C1COCCO1	0.52
in CC1COC(=O)O1	0.98
in CC#N	0.25
in CC(=O)N(C)C	0.76
in CC(C)(C)O	-0.11
in CC(C)=O	-0.07
in CC(C)CC(C)(C)C	-0.47
in CC(C)CO	0.1
in CCC(C)O	0.26
in CCCCCC	-0.41
in CCCCCCC	-0.32
in CCCCCCCC	-0.23
in CCCCCCCCC	-0.16
in CCCCCCCCCC	-0.06
in CCCCCCCCCCC	0
in CCCCCCCCCCCC	0.06
in CCCCCCCCCCCCC	0.12
in CCCCCCCCCCCCCC	0.15
in CCCCCCCCCCCCCCC	0.18
in CCCCCCCCCCCCCCCC	0.22
in CCCCCCCCCCCO	0.49
in CCCCCCCCCCO	0.47
in CCCCCCCCCO	0.43
in CCCCCCCCO	0.41
in CCCCCCCO	0.37
in CCCCCCO	0.34
in CCCCCO	0.29
in CCCCO	0.26
in CCCO	0.18
in CCO	0.14
in CN(C)C=O	0.83
in CN(C)P(=O)(N(C)C)N(C)C	0.66
in CNC=O	1.02
in CO	0.26
in CS(C)=O	-0.05
in Cc1ccc(C)cc1	0.19
in Cc1cccc(C)c1	0.19
in Cc1ccccc1C	0.27
in ClC(Cl)(Cl)Cl	-0.03
in Clc1ccccc1	0.35
in N#Cc1ccccc1	0.71
in O	3.04
in O=C1CCCC1	0.49
in O=C1CCCCC1	0.52

CCc1ccc(CC)cc1
Details	solvation free energy, 298 K [kcal/mol]
in CC(C)(C)O	-6.3

COCC(OC)(OC)OC
Details	solvation free energy, 298 K [kcal/mol]
in O	-5.73

Nc1cccc2ccccc12
Details	solvation free energy, 298 K [kcal/mol]
in CCCCCC	-8.87
in CCCCCCCC	-8.82
in O	-7.4

ON=C1CCCCC1
Details	solvation free energy, 298 K [kcal/mol]
in CCCCCC	-6.16

O=C=O
Details	solvation free energy, 298 K [kcal/mol]
in Brc1ccccc1	-0.35
in C1CCC2CCCCC2C1	-0.22
in C1CCCCC1	-0.32
in C1CCOC1	-1.12
in C1COCCO1	-1.16
in C=CCCCC	-0.56
in C=CCCCCCC	-0.45
in C=CCCCCCCCC	-0.35
in CC1COC(=O)O1	-0.75
in CC(C)(C)O	-0.41
in CC(C)=O	-1.1
in CC(C)CO	-0.37
in CC(C)O	-0.42
in CCC(C)=O	-0.98
in CCC(C)O	-0.33
in CCCCCC	-0.48
in CCCCCCC	-0.41
in CCCCCCCC	-0.35
in CCCCCCCCCC	-0.27
in CCCCCCCCCCCCCCCC	-0.12
in CCCCCCCCCCO	-0.13
in CCCCCCCCO	-0.22
in CCCCO	-0.4
in CCCCOCCO	-0.26
in CCCCOCCOCCO	-0.23
in CCCCOCCOCCOCCO	-0.48
in CCCO	-0.48
in CCO	-0.57
in CCOCCOCCO	-0.51
in CCOCCOCCOCC	-0.69
in CCc1ccccc1	-0.21
in CN1CCCC1=O	-0.82
in CN(C)C=O	-0.95
in CN(C)P(=O)(N(C)C)N(C)C	-0.9
in CO	-0.85
in COC(=O)CC#N	-0.67
in COC(C)=O	-1.13
in COCCO	-0.65
in COCCOC	-0.86
in COCCOCCO	-0.7
in COCCOCCOC	-0.84
in COCCOCCOCCO	-0.5
in COCCOCCOCCOC	-0.7
in COCCOCCOCCOCCOC	-0.77
in CS(C)=O	-0.69
in Cc1ccc(C)cc1	-0.45
in Cc1cccc(C)c1	-0.45
in Cc1ccccc1	-0.48
in Cc1ccccc1C	-0.43
in ClC(Cl)(Cl)Cl	-0.61
in ClC(Cl)Cl	-0.61
in ClCCCl	-0.78
in ClCCl	-0.68
in Clc1ccccc1	-0.5
in Nc1ccccc1	-0.44
in O	0.11
in O=C1CCCC1	-0.89
in O=C1CCCCC1	-0.79
in O=CN1CCOCC1	-0.71
in OCCCOCCCO	-0.25
in OCCO	-0.17
in OCCOCCO	-0.28
in OCc1ccccc1	-0.36
in c1ccccc1	-0.58

CC(C)OC(C)(C)C
Details	solvation free energy, 298 K [kcal/mol]
in CC(=O)N(C)C	-3.75
in CCCCN(C=O)CCCC	-3.87
in CN1CCCCC1=O	-3.66
in CNC(C)=O	-3.62
in O	-1.01

[2H][2H]
Details	solvation free energy, 298 K [kcal/mol]
in Brc1ccccc1	1.76
in C1CCOC1	1.47
in C1COCCO1	1.72
in CC(C)(C)O	1.46
in CC(C)CC(C)(C)C	1.27
in CC(C)CO	1.53
in CCC(C)O	1.54
in CCCCCCC	1.27
in CCCCCCCC	1.34
in CCCCO	1.53
in Clc1ccccc1	1.65
in O	2.36
in O=C1CCCC1	1.7
in O=C1CCCCC1	1.73

COc1cc(C2c3cc4c(cc3C(O)C3COC(=O)C23)OCO4)cc(OC)c1OC (centres undefined)
Details	solvation free energy, 298 K [kcal/mol]
in CC(C)O	-25.1
in CCO	-25.3

CCCCCCCCC(C)=O
Details	solvation free energy, 298 K [kcal/mol]
in O	-2.34

COc1ccc2c(c1)c(CC(=O)O)c(C)n2C(=O)c1ccc(Cl)cc1
Details	solvation free energy, 298 K [kcal/mol]
in O	-15.1

Reference: the CombiSolv-Exp solvation set (Vermeire and Green 2021)
